Test results reported in patent publication US12522602B2, “Derivatives having 2,3-dihydro-1H-indene or 2,3-dihydrobenzofuran moiety or pharmaceutically acceptable salt thereof and pharmaceutical compositions comprising the same” (YUHAN CORPORATION, priority 2019, dated 2026).
pIC50: −log10 of the molar value.

tested on: GM1 production in Jurkat cells; assay: cells; type: cell-based; settings: Homo sapiens, Jurkat, 72 h

**Q.** With `CC(C)Cc1ccc(-c2cc3c(cc2F)C(NC(=O)O[C@@H]2CN4CCC2CC4)C(C)(C)C3)cc1` (stereo partly drawn) [Example 352, (S)-quinuclidin-3-yl (6-fluoro-5-(4-isobutylphenyl)-2,2-dimethyl-2,3-dihydro-1H-inden-1-yl)carbamate] as the compound, how does the pIC50 read?
**A.** Its pIC50 is 8.24.

**Q.** `CC(C)(C)c1ccc(-c2cc3c(cc2F)C(NC(=O)O[C@@H]2CN4CCC2CC4)C(C)(C)C3)cc1` (stereo partly drawn) [Example 353, (S)-quinuclidin-3-yl (5-(4-(tert-butyl)phenyl)-6-fluoro-2,2-dimethyl-2,3-dihydro-1H-inden-1-yl)carbamate] was tested. Which pIC50 did it give?
**A.** The pIC50 was 7.90.

**Q.** `CC1(C)Cc2cc(-c3ccc(C4CC4)cc3)c(F)cc2C1NC(=O)O[C@@H]1CN2CCC1CC2` (stereo partly drawn) [Example 354, (S)-quinuclidin-3-yl (5-(4-cyclopropylphenyl)-6-fluoro-2,2-dimethyl-2,3-dihydro-1H-inden-1-yl)carbamate] was tested. Which pIC50 did it give?
**A.** The pIC50 was 8.23.

**Q.** `COc1ccc(-c2cc3c(cc2F)C(NC(=O)O[C@@H]2CN4CCC2CC4)C(C)(C)C3)cc1` (stereo partly drawn) [Example 355, (S)-quinuclidin-3-yl (6-fluoro-5-(4-methoxyphenyl)-2,2-dimethyl-2,3-dihydro-1H-inden-1-yl)carbamate] was tested. Which pIC50 did it give?
**A.** The pIC50 was 7.20.

**Q.** With `CCOc1ccc(-c2cc3c(cc2F)C(NC(=O)O[C@@H]2CN4CCC2CC4)C(C)(C)C3)cc1` (stereo partly drawn) [Example 356, (S)-quinuclidin-3-yl (5-(4-ethoxyphenyl)-6-fluoro-2,2-dimethyl-2,3-dihydro-1H-inden-1-yl)carbamate] as the compound, how does the pIC50 read?
**A.** The pIC50 was 7.67.

**Q.** With `CCCOc1ccc(-c2cc3c(cc2F)C(NC(=O)O[C@@H]2CN4CCC2CC4)C(C)(C)C3)cc1` (stereo partly drawn) [Example 357, (S)-quinuclidin-3-yl (6-fluoro-2,2-dimethyl-5-(4-propoxyphenyl)-2,3-dihydro-1H-inden-1-yl)carbamate] as the compound, how does the pIC50 read?
**A.** The pIC50 was 8.28.

**Q.** With `CC(C)Oc1ccc(-c2cc3c(cc2F)C(NC(=O)O[C@@H]2CN4CCC2CC4)C(C)(C)C3)cc1` (stereo partly drawn) [Example 358, (S)-quinuclidin-3-yl (6-fluoro-5-(4-isopropoxyphenyl)-2,2-dimethyl-2,3-dihydro-1H-inden-1-yl)carbamate] as the compound, how does the pIC50 read?
**A.** Its pIC50 is 8.11.

**Q.** `CC(C)Oc1ccc(-c2cc3c(cc2F)C(NC(=O)O[C@@H]2CN4CCC2CC4)C(C)(C)C3)cc1Cl` (stereo partly drawn) [Example 359, (S)-quinuclidin-3-yl (5-(3-chloro-4-isopropoxyphenyl)-6-fluoro-2,2-dimethyl-2,3-dihydro-1H-inden-1-yl)carbamate] was tested. Which pIC50 did it give?
**A.** The pIC50 was 7.48.

**Q.** With `COc1ccc(-c2cc3c(cc2F)C(NC(=O)O[C@@H]2CN4CCC2CC4)C(C)(C)C3)c(F)c1` (stereo partly drawn) [Example 360, (S)-quinuclidin-3-yl (6-fluoro-5-(2-fluoro-4-methoxyphenyl)-2,2-dimethyl-2,3-dihydro-1H-inden-1-yl)carbamate] as the compound, how does the pIC50 read?
**A.** The pIC50 was 7.41.

**Q.** How did the pIC50 turn out when `CCCCOc1ccc(-c2cc3c(cc2F)C(NC(=O)O[C@@H]2CN4CCC2CC4)C(C)(C)C3)cc1` (stereo partly drawn) [Example 361, (S)-quinuclidin-3-yl (5-(4-butoxyphenyl)-6-fluoro-2,2-dimethyl-2,3-dihydro-1H-inden-1-yl)carbamate] was run?
**A.** Its pIC50 is 8.68.

**Q.** `CC(C)COc1ccc(-c2cc3c(cc2F)C(NC(=O)O[C@@H]2CN4CCC2CC4)C(C)(C)C3)cc1` (stereo partly drawn) [Example 362, (S)-quinuclidin-3-yl (6-fluoro-5-(4-isobutoxyphenyl)-2,2-dimethyl-2,3-dihydro-1H-inden-1-yl)carbamate] was tested. Which pIC50 did it give?
**A.** The pIC50 was 8.60.

**Q.** With `CC1(C)Cc2cc(-c3ccc(OCC4CC4)nc3)c(F)cc2C1NC(=O)O[C@@H]1CN2CCC1CC2` (stereo partly drawn) [Example 363, (S)-quinuclidin-3-yl (5-(6-(cyclopropylmethoxy)pyridin-3-yl)-6-fluoro-2,2-dimethyl-2,3-dihydro-1H-inden-1-yl)carbamate] as the compound, how does the pIC50 read?
**A.** Its pIC50 is 8.06.

**Q.** `COc1ccc(Cl)cc1-c1cc2c(cc1F)C(NC(=O)O[C@@H]1CN3CCC1CC3)C(C)(C)C2` (stereo partly drawn) [Example 364, (S)-quinuclidin-3-yl (5-(5-chloro-2-methoxyphenyl)-6-fluoro-2,2-dimethyl-2,3-dihydro-1H-inden-1-yl)carbamate] was tested. Which pIC50 did it give?
**A.** Its pIC50 is 7.76.

**Q.** `CCCCc1ccc(-c2cc3c(cc2F)C(NC(=O)O[C@@H]2CN4CCC2CC4)C(C)(C)C3)cc1` (stereo partly drawn) [Example 365, (S)-quinuclidin-3-yl (5-(4-butylphenyl)-6-fluoro-2,2-dimethyl-2,3-dihydro-1H-inden-1-yl)carbamate] was tested. Which pIC50 did it give?
**A.** The pIC50 was 8.62.

**Q.** With `COc1c(C)cc(-c2cc3c(cc2F)C(NC(=O)O[C@@H]2CN4CCC2CC4)C(C)(C)C3)cc1C` (stereo partly drawn) [Example 366, (S)-quinuclidin-3-yl (6-fluoro-5-(4-methoxy-3,5-dimethylphenyl)-2,2-dimethyl-2,3-dihydro-1H-inden-1-yl)carbamate] as the compound, how does the pIC50 read?
**A.** Its pIC50 is 7.10.

**Q.** `CCOc1c(C)cc(-c2cc3c(cc2F)C(NC(=O)O[C@@H]2CN4CCC2CC4)C(C)(C)C3)cc1C` (stereo partly drawn) [Example 367, (S)-quinuclidin-3-yl (5-(4-ethoxy-3,5-dimethylphenyl)-6-fluoro-2,2-dimethyl-2,3-dihydro-1H-inden-1-yl)carbamate] was tested. Which pIC50 did it give?
**A.** Its pIC50 is 7.17.

**Q.** With `CCCCOc1c(C)cc(-c2cc3c(cc2F)C(NC(=O)O[C@@H]2CN4CCC2CC4)C(C)(C)C3)cc1C` (stereo partly drawn) [Example 368, (S)-quinuclidin-3-yl (5-(4-butoxy-3,5-dimethylphenyl)-6-fluoro-2,2-dimethyl-2,3-dihydro-1H-inden-1-yl)carbamate] as the compound, how does the pIC50 read?
**A.** The pIC50 was 7.64.

**Q.** How did the pIC50 turn out when `COc1cc(-c2cc3c(cc2F)C(NC(=O)O[C@@H]2CN4CCC2CC4)C(C)(C)C3)ccn1` (stereo partly drawn) [Example 369, (S)-quinuclidin-3-yl (6-fluoro-5-(2-methoxypyridin-4-yl)-2,2-dimethyl-2,3-dihydro-1H-inden-1-yl)carbamate] was run?
**A.** The pIC50 was 6.77.

**Q.** With `CC1(C)Cc2cc(-c3cccc(F)c3)c(F)cc2C1NC(=O)O[C@@H]1CN2CCC1CC2` (stereo partly drawn) [Example 370, (S)-quinuclidin-3-yl (6-fluoro-5-(3-fluorophenyl)-2,2-dimethyl-2,3-dihydro-1H-inden-1-yl)carbamate] as the compound, how does the pIC50 read?
**A.** Its pIC50 is 7.41.

**Q.** With `CCc1cccc(-c2cc3c(cc2F)C(NC(=O)O[C@@H]2CN4CCC2CC4)C(C)(C)C3)c1` (stereo partly drawn) [Example 371, (S)-quinuclidin-3-yl (5-(3-ethylphenyl)-6-fluoro-2,2-dimethyl-2,3-dihydro-1H-inden-1-yl)carbamate] as the compound, how does the pIC50 read?
**A.** Its pIC50 is 7.61.

**Q.** How did the pIC50 turn out when `CC(C)Cc1cccc(-c2cc3c(cc2F)C(NC(=O)O[C@@H]2CN4CCC2CC4)C(C)(C)C3)c1` (stereo partly drawn) [Example 372, (S)-quinuclidin-3-yl (6-fluoro-5-(3-isobutylphenyl)-2,2-dimethyl-2,3-dihydro-1H-inden-1-yl)carbamate] was run?
**A.** Its pIC50 is 7.34.

**Q.** How did the pIC50 turn out when `CC(C)c1cccc(-c2cc3c(cc2F)C(NC(=O)O[C@@H]2CN4CCC2CC4)C(C)(C)C3)c1` (stereo partly drawn) [Example 373, (S)-quinuclidin-3-yl (6-fluoro-5-(3-isopropylphenyl)-2,2-dimethyl-2,3-dihydro-1H-inden-1-yl)carbamate] was run?
**A.** The pIC50 was 7.51.

**Q.** How did the pIC50 turn out when `CC(C)(C)c1cccc(-c2cc3c(cc2F)C(NC(=O)O[C@@H]2CN4CCC2CC4)C(C)(C)C3)c1` (stereo partly drawn) [Example 374, (S)-quinuclidin-3-yl (5-(3-(tert-butyl)phenyl)-6-fluoro-2,2-dimethyl-2,3-dihydro-1H-inden-1-yl)carbamate] was run?
**A.** Its pIC50 is 7.58.

**Q.** With `COc1cccc(-c2cc3c(cc2F)C(NC(=O)O[C@@H]2CN4CCC2CC4)C(C)(C)C3)c1` (stereo partly drawn) [Example 375, (S)-quinuclidin-3-yl (6-fluoro-5-(3-methoxyphenyl)-2,2-dimethyl-2,3-dihydro-1H-inden-1-yl)carbamate] as the compound, how does the pIC50 read?
**A.** The pIC50 was 7.64.

**Q.** How did the pIC50 turn out when `CCCOc1cccc(-c2cc3c(cc2F)C(NC(=O)O[C@@H]2CN4CCC2CC4)C(C)(C)C3)c1` (stereo partly drawn) [Example 377, (S)-quinuclidin-3-yl (6-fluoro-2,2-dimethyl-5-(3-propoxyphenyl)-2,3-dihydro-1H-inden-1-yl)carbamate] was run?
**A.** The pIC50 was 7.45.

**Q.** With `CC(C)Oc1cccc(-c2cc3c(cc2F)C(NC(=O)O[C@@H]2CN4CCC2CC4)C(C)(C)C3)c1` (stereo partly drawn) [Example 378, (S)-quinuclidin-3-yl (6-fluoro-5-(3-isopropoxyphenyl)-2,2-dimethyl-2,3-dihydro-1H-inden-1-yl)carbamate] as the compound, how does the pIC50 read?
**A.** The pIC50 was 7.06.

**Q.** With `CCCCOc1cccc(-c2cc3c(cc2F)C(NC(=O)O[C@@H]2CN4CCC2CC4)C(C)(C)C3)c1` (stereo partly drawn) [Example 379, (S)-quinuclidin-3-yl (5-(3-butoxyphenyl)-6-fluoro-2,2-dimethyl-2,3-dihydro-1H-inden-1-yl)carbamate] as the compound, how does the pIC50 read?
**A.** The pIC50 was 7.80.

**Q.** `CC(C)COc1cccc(-c2cc3c(cc2F)C(NC(=O)O[C@@H]2CN4CCC2CC4)C(C)(C)C3)c1` (stereo partly drawn) [Example 380, (S)-quinuclidin-3-yl (6-fluoro-5-(3-isobutoxyphenyl)-2,2-dimethyl-2,3-dihydro-1H-inden-1-yl)carbamate] was tested. Which pIC50 did it give?
**A.** The pIC50 was 7.44.

**Q.** `COc1ccc(-c2cc3c(cc2F)C(NC(=O)O[C@@H]2CN4CCC2CC4)C(C)(C)C3)c(OC)c1` (stereo partly drawn) [Example 381, (S)-quinuclidin-3-yl (5-(2,4-dimethoxyphenyl)-6-fluoro-2,2-dimethyl-2,3-dihydro-1H-inden-1-yl)carbamate] was tested. Which pIC50 did it give?
**A.** The pIC50 was 7.22.

**Q.** `COc1ccc(OC)c(-c2cc3c(cc2F)C(NC(=O)O[C@@H]2CN4CCC2CC4)C(C)(C)C3)c1` (stereo partly drawn) [Example 382, (S)-quinuclidin-3-yl (5-(2,5-dimethoxyphenyl)-6-fluoro-2,2-dimethyl-2,3-dihydro-1H-inden-1-yl)carbamate] was tested. Which pIC50 did it give?
**A.** Its pIC50 is 7.50.

**Q.** `COc1cccc(OC)c1-c1cc2c(cc1F)C(NC(=O)O[C@@H]1CN3CCC1CC3)C(C)(C)C2` (stereo partly drawn) [Example 383, (S)-quinuclidin-3-yl (5-(2,6-dimethoxyphenyl)-6-fluoro-2,2-dimethyl-2,3-dihydro-1H-inden-1-yl)carbamate] was tested. Which pIC50 did it give?
**A.** Its pIC50 is 6.91.

**Q.** How did the pIC50 turn out when `COc1cc(OC)cc(-c2cc3c(cc2F)C(NC(=O)O[C@@H]2CN4CCC2CC4)C(C)(C)C3)c1` (stereo partly drawn) [Example 384, (S)-quinuclidin-3-yl (5-(3,5-dimethoxyphenyl)-6-fluoro-2,2-dimethyl-2,3-dihydro-1H-inden-1-yl)carbamate] was run?
**A.** The pIC50 was 7.08.

**Q.** With `COc1ccc(-c2cc3c(cc2F)C(NC(=O)O[C@@H]2CN4CCC2CC4)C(C)(C)C3)cc1OC` (stereo partly drawn) [Example 385, (S)-quinuclidin-3-yl (5-(3,4-dimethoxyphenyl)-6-fluoro-2,2-dimethyl-2,3-dihydro-1H-inden-1-yl)carbamate] as the compound, how does the pIC50 read?
**A.** The pIC50 was 6.48.

**Q.** `COc1ccc(-c2cc3c(cc2F)C(NC(=O)O[C@@H]2CN4CCC2CC4)C(C)(C)C3)c(Cl)c1` (stereo partly drawn) [Example 386, (S)-quinuclidin-3-yl (5-(2-chloro-4-methoxyphenyl)-6-fluoro-2,2-dimethyl-2,3-dihydro-1H-inden-1-yl)carbamate] was tested. Which pIC50 did it give?
**A.** Its pIC50 is 7.53.
